Data as given in US12390441B2, “Immunomodulating o-het/aryl azalides” (Zoetis Services LLC, priority 2020, dated 2025).

Key:
Assay in all cases: Whole blood assay, LPS stimulation, MSD cytokine detection
TNF-α = assay type: cell-based; details: fresh whole bovine blood
Procedure: (§1) Compounds of the invention were evaluated against a positive control for their ability to inhibit LPS-induced IL-1p and TNF-α as an overall evaluation of relative potency and modulation of target pathways.
(§2) In the bovine whole blood in vitro screening assay the inhibition of TNFα as induced by stimulation by lipopolysaccharide (LPS) and as measured by half the maximal inhibitory concentration (IC50) is recognized as the primary biomarker of immunomodulation potency upon pretreatment with the compounds of the invention. IL-1β is a mediator of the inflammation response and is involved in a number of cellular activities including proliferation, differentiation and apoptosis. IL-1β is also released upon cellular stress or cytotoxicity or upon TLR stimulation. In the bovine whole blood assay the stimulation of IL-1β release upon increasing concentration of test compound is seen as a potential cellular toxicity signal as induced by the test compound. In order to estimate a therapeutic index from the in vitro assay a differential between the TNFα IC50 (immunomodulation potency) versus the perceived cellular toxicity concentration (IL-1β release or overstimulation) was utilized. […] As the in vitro assay index approaches 1 it is proposed that the balance between immunomodulation and cytotoxicity would be too narrow in order to achieve an efficacious dose in vivo.

IL-1β = assay type: cell-based, bovine; details: fresh whole bovine blood, LPS stimulation; drug concentration giving overstimulation (OS) of IL-1β
Procedure: as §1, §2

IL-6 = assay type: cell-based; details: fresh whole bovine blood

IC50 (TNF-α) [µM]	IC50 (IL-6) [µM]	IC50 (TNF-α; Bos taurus) [µM]	IC50 (IL-6; Bos taurus) [µM]	SMILES	IL-1ß OS of LPS (IL-1β) [µM]
6	3	–	–	CCCNC[C@]1(O)[C@H](C)O[C@@H](O[C@H]2[C@H](C)[C@@H](O[C@@H]3O[C@H](C)C[C@H](N(C)Cc4nccs4)[C@H]3Oc3ccccc3)[C@](C)(O)C[C@@H](C)CN[C@H](C)[C@@H](O)[C@](C)(O)[C@@H](CC)OC(=O)[C@@H]2C)C[C@@]1(C)OC [Example E-150]	1
5	50	–	–	CC[C@H]1OC(=O)[C@H](C)[C@@H](O[C@H]2C[C@@](C)(OC)[C@@H](O)[C@H](C)O2)[C@H](C)[C@@H](O[C@@H]2O[C@H](C)C[C@H](N(C)C)[C@H]2Oc2ccc(F)cc2)[C@](C)(O)C[C@@H](C)CN(C)[C@H](C)[C@@H](O)[C@]1(C)O [Example A-23]	6
100	147	–	–	CC[C@H]1OC(=O)[C@H](C)[C@@H](O[C@H]2C[C@@](C)(OC)[C@](O)(CN(C)CCN(C)C)[C@H](C)O2)[C@H](C)[C@@H](O[C@@H]2O[C@H](C)C[C@H](NC)[C@H]2Oc2ccccc2)[C@](C)(O)C[C@@H](C)CN[C@H](C)[C@@H](O)[C@]1(C)O [Example E-128]	100
28	18	–	–	CC[C@H]1OC(=O)[C@H](C)[C@@H](O)[C@H](C)[C@@H](O[C@@H]2O[C@H](C)C[C@H](N(C)C(=O)N(C)C3CCC3)[C@H]2Oc2ccccc2)[C@](C)(O)C[C@@H](C)CN[C@H](C)[C@@H](O)[C@]1(C)O [Example C-21]	8
4	21	–	–	CC[C@H]1OC(=O)[C@H](C)[C@@H](O[C@H]2C[C@@](C)(OC)[C@@H](O)[C@H](C)O2)[C@H](C)[C@@H](O[C@@H]2O[C@H](C)C[C@H](NC)[C@H]2Oc2ccc(OC)c(OC(C)C)c2)[C@](C)(O)C[C@@H](C)CN(C)[C@H](C)[C@@H](O)[C@]1(C)O [Example A-34]	>250
59	25	–	–	CC[C@H]1OC(=O)[C@H](C)[C@@H](O)[C@H](C)[C@@H](O[C@@H]2O[C@H](C)C[C@H](N(C)C(=O)N(C)C)[C@H]2Oc2ccc(F)cc2C)[C@](C)(O)C[C@@H](C)CN[C@H](C)[C@@H](O)[C@]1(C)O [Example C-25]	40
181	136	–	–	CC[C@H]1OC(=O)[C@H](C)[C@@H](O)[C@H](C)[C@@H](O[C@@H]2O[C@H](C)C[C@H](N(C)C(=O)N(C)c3ccccc3)[C@H]2Oc2cc(F)c(OC)c(F)c2)[C@](C)(O)C[C@@H](C)CN(C)[C@H](C)[C@@H](O)[C@]1(C)O [Example C-49]	6
5	26	–	–	CC[C@H]1OC(=O)[C@H](C)[C@@H](O)[C@H](C)[C@@H](O[C@@H]2O[C@H](C)C[C@H](N(C)C(=O)N(C)c3ccccc3)[C@H]2Oc2ccccc2Cl)[C@](C)(O)C[C@@H](C)CN[C@H](C)[C@@H](O)[C@]1(C)O [Example C-38]	16
–	–	9	10	CCCNC[C@]1(O)[C@H](C)O[C@@H](O[C@H]2[C@H](C)[C@@H](O[C@@H]3O[C@H](C)C[C@H](NC)[C@H]3Oc3ccccc3)[C@](C)(O)C[C@@H](C)CN(CCC)[C@H](C)[C@@H](O)[C@](C)(O)[C@@H](CC)OC(=O)[C@@H]2C)C[C@@]1(C)OC [Example E-157]	16
8	87	–	–	CC[C@H]1OC(=O)[C@H](C)[C@@H](O[C@H]2C[C@@](C)(OC)[C@](O)(CNCCN(C)C)[C@H](C)O2)[C@H](C)[C@@H](O[C@@H]2O[C@H](C)C[C@H](N(C)C)[C@H]2Oc2ccccc2)[C@](C)(O)C[C@@H](C)CN[C@H](C)[C@@H](O)[C@]1(C)O [Example E-144]	40
7	9	–	–	CC[C@H]1OC(=O)[C@H](C)[C@@H](O[C@H]2C[C@@](C)(OC)[C@@H](O)[C@H](C)O2)[C@H](C)[C@@H](O[C@@H]2O[C@H](C)C[C@H](NC)[C@H]2Oc2cnc(Cl)cc2C)[C@](C)(O)C[C@@H](C)CN(C)[C@H](C)[C@@H](O)[C@]1(C)O [Example A-29]	10
13	13	–	–	CC[C@H]1OC(=O)[C@H](C)[C@@H](O[C@H]2C[C@@](C)(OC)[C@@H](O)[C@H](C)O2)[C@H](C)[C@@H](O[C@@H]2O[C@H](C)C[C@H](NC)[C@H]2Oc2ccccc2C#N)[C@](C)(O)C[C@@H](C)CN(C)[C@H](C)[C@@H](O)[C@]1(C)O [Example A-36]	100
7	19	–	–	CC[C@H]1OC(=O)[C@H](C)[C@@H](O[C@H]2C[C@@](C)(OC)[C@](O)(CNC3CCC3)[C@H](C)O2)[C@H](C)[C@@H](O[C@@H]2O[C@H](C)C[C@H](N(C)C)[C@H]2Oc2ccccc2)[C@](C)(O)C[C@@H](C)CN[C@H](C)[C@@H](O)[C@]1(C)O [Example E-141]	16
21	32	–	–	CC[C@H]1OC(=O)[C@H](C)[C@@H](O)[C@H](C)[C@@H](O[C@@H]2O[C@H](C)C[C@H](N(C)C(=O)N(C)c3ccc(C#N)cc3)[C@H]2Oc2ccccc2Cl)[C@](C)(O)C[C@@H](C)CN[C@H](C)[C@@H](O)[C@]1(C)O [Example C-43]	16
38	63	–	–	CC[C@H]1OC(=O)[C@H](C)[C@@H](O)[C@H](C)[C@@H](O[C@@H]2O[C@H](C)C[C@H](N(C)C(=O)N(C)c3ncccn3)[C@H]2Oc2ccccc2)[C@](C)(O)C[C@@H](C)CN(C)[C@H](C)[C@@H](O)[C@]1(C)O [Example C-17]	44
34	86	–	–	CC[C@H]1OC(=O)[C@H](C)[C@@H](O[C@H]2C[C@@](C)(OC)[C@](O)(CN(C)CCN(C)C)[C@H](C)O2)[C@H](C)[C@@H](O[C@@H]2O[C@H](C)C[C@H](N(C)C)[C@H]2Oc2ccccc2)[C@](C)(O)C[C@@H](C)CN[C@H](C)[C@@H](O)[C@]1(C)O [Example E-143]	40
35	52	–	–	CC[C@H]1OC(=O)[C@H](C)[C@@H](O[C@H]2C[C@@](C)(OC)[C@](O)(CNCCCOC)[C@H](C)O2)[C@H](C)[C@@H](O[C@@H]2O[C@H](C)C[C@H](NC)[C@H]2Oc2ccccc2)[C@](C)(O)C[C@@H](C)CN[C@H](C)[C@@H](O)[C@]1(C)O [Example E-131]	100
12	45	–	–	CC[C@H]1OC(=O)[C@H](C)[C@@H](O[C@H]2C[C@@](C)(OC)[C@](O)(CNCCCOC)[C@H](C)O2)[C@H](C)[C@@H](O[C@@H]2O[C@H](C)C[C@H](N(C)C)[C@H]2Oc2ccccc2)[C@](C)(O)C[C@@H](C)CN[C@H](C)[C@@H](O)[C@]1(C)O [Example E-146]	40
6	11	–	–	CC[C@H]1OC(=O)[C@H](C)[C@@H](O[C@H]2C[C@@](C)(OC)[C@](O)(CNC(C)C)[C@H](C)O2)[C@H](C)[C@@H](O[C@@H]2O[C@H](C)C[C@H](N(C)C)[C@H]2Oc2ccc(F)cc2)[C@](C)(O)C[C@@H](C)CN[C@H](C)[C@@H](O)[C@]1(C)O [Example E-117]	16

SMILES	IC50 (TNF-α) [µM]	IC50 (IL-6) [µM]	IC50 (TNF-α; Bos taurus) [µM]	IC50 (IL-6; Bos taurus) [µM]	IL-1ß OS of LPS (IL-1β) [µM]
CC[C@H]1OC(=O)[C@H](C)[C@@H](O[C@H]2C[C@@](C)(OC)[C@](O)(CNn3ccnc3)[C@H](C)O2)[C@H](C)[C@@H](O[C@@H]2O[C@H](C)C[C@H](N(C)C)[C@H]2Oc2ccccc2)[C@](C)(O)C[C@@H](C)CN[C@H](C)[C@@H](O)[C@]1(C)O [Example E-40]	11	55	–	–	40
CCCNC[C@]1(O)[C@H](C)O[C@@H](O[C@H]2[C@H](C)[C@@H](O[C@@H]3O[C@H](C)C[C@H](N(C)C)[C@H]3Oc3ccc4ncccc4c3)[C@](C)(O)C[C@@H](C)CN[C@H](C)[C@@H](O)[C@](C)(O)[C@@H](CC)OC(=O)[C@@H]2C)C[C@@]1(C)OC [Example E-69]	19	68	–	–	16
CC[C@H]1OC(=O)[C@H](C)[C@@H](O[C@H]2C[C@@](C)(OC)[C@](O)(CNn3ccnc3)[C@H](C)O2)[C@H](C)[C@@H](O[C@@H]2O[C@H](C)C[C@H](NC)[C@H]2Oc2ccccc2)[C@](C)(O)C[C@@H](C)CN[C@H](C)[C@@H](O)[C@]1(C)O [Example E-138]	48	87	–	–	40
CCCNC[C@]1(O)[C@H](C)O[C@@H](O[C@H]2[C@H](C)[C@@H](O[C@@H]3O[C@H](C)C[C@H](N(C)Cc4cccnc4)[C@H]3Oc3ccccc3)[C@](C)(O)C[C@@H](C)CN[C@H](C)[C@@H](O)[C@](C)(O)[C@@H](CC)OC(=O)[C@@H]2C)C[C@@]1(C)OC [Example E-149]	10	6	–	–	2
CC[C@H]1OC(=O)[C@H](C)[C@@H](O)[C@H](C)[C@@H](O[C@@H]2O[C@H](C)C[C@H](N(C)C(=O)N(C)c3ccccc3)[C@H]2Oc2ccc(OC)c(OC(C)C)c2)[C@](C)(O)C[C@@H](C)CN[C@H](C)[C@@H](O)[C@]1(C)O [Example C-34]	28	16	–	–	16
